Several values for one entry are separate records, joined by “and”; a condition that tells them apart may be missing. Equal entries are not always repeated.
Key:
[1] = system: Sprague-Dawley™ (SD) rats; experiment: Preliminary phase: induction of 'Sleep' by IV diazepam (dose finding); conditions: for mortality after diazepam injection: FDC = Found Dead in the Cage
[2] = Clinical study: vital signs and safety assessments; conditions: Baseline sleep (after hypnotic, before oral spray); for Pulse rate: 10 subjects per hypnotic
[3] = system: sleep/hypnotic effect of zolpidem or brotizolam; experiment: Clinical study: Visual Analogue Scale (sleepiness/vigilance, ability to focus, effectiveness); conditions: Baseline sleep (after hypnotic, before oral spray)
[4] = system: sleep/hypnotic effect of zolpidem or brotizolam; experiment: Clinical study: Profile Of Mood States (POMS) Brief form; conditions: Baseline sleep (after hypnotic, before oral spray)
[5] = system: sleep/hypnotic effect of zolpidem or brotizolam; experiment: Clinical study: digit symbol substitution test (DSST); conditions: Baseline sleep (after hypnotic, before oral spray)
[6] = system: sleep/hypnotic effect of zolpidem or brotizolam; experiment: Clinical study: immediate Word Recall Test (iWRT); conditions: Baseline sleep (after hypnotic, before oral spray)
[7] = in vivo, po; cited from earlier work
[8] = system: diazepam-induced sedative-hypnotic effects; experiment: Main phase: locomotor activity in activity cage after diazepam induction; assay type: in vivo, rat
Description: (§1) The main phase consisted of 4 groups of n=8 male and female SD rats/group. Induction of sedative-hypnotic effects, as measured by Sleeping Time and locomotor activity, was carried out by two intravenous injections of diazepam at an interval of approximately 2 minutes. The Test, Reference and Control Items were administered twice at interval of 2 minutes as well, about 5 minutes after the second dose of diazepam. Both Test Items FLUMUP-F22 (F22, Table 26 below) and FLUMUP-F26 (F26, Table 26 below) were administered by the sublingual route at a constant dose volume of 0.1 ml/animal per administration. An additional group was administered with FLUMUP Placebo under identical experimental conditions and served as a Control group. A fourth group was subjected to IV injection of the Reference Item under identical experimental conditions. Animals were placed in the activity cage immediately following arousal from ‘Sleep’ or 10 minutes post the second dose of the respective treatment if arousal was not evident.
Males were injected with an initial dose level of 15 mg/kg and approximately 2 minutes later an addition of 5 mg/kg was administered. Females were injected with an initial dose level of 20 mg/kg and approximately 2 minutes later an addition of 5 mg/kg.
(i) The Test and Control Items were administered by the sublingual route twice at an interval of approximately 2 minutes about 5 minutes post the second injection of diazepam. (ii) The Reference Item flumazenil USP was injected twice intravenously at an interval of approximately 2 minutes about 5 minutes post the second injection of diazepam. The Test, Reference and Control Items were administered at a constant dose volume of 0.1 ml/animal per administration over approximately 15 seconds.
Each rat was placed in the center of a special designed commercial activity cage, measuring 40×40×46 cm (TruScan Photo Beam Activity System-Coulbourn Instruments, Allentown, Pa., USA) for a duration of 15 minutes.
Evaluation was based on the relative recorded changes in the measured Sleeping Time and locomotor activity, obtained from the Test & Reference Items-treated animals vs. those of the Control Item group. Data analysis of all measurable parameters was performed by the use of the following methods in order to determine significance of treatment effects: Software: GraphPad Instat®—Version 3.02 (Statistical Method: 1-Way ANOVA; Dunnett Multiple Comparisons Test for locomotor activity parameters; Kruskal-Wallis Test for Sleeping Time data) Microsoft” Excel 2000.

[9] = system: diazepam-induced sedative-hypnotic effects; experiment: Main phase: Sleeping Time (regaining of Righting Reflex) after diazepam induction; assay type: in vivo, rat; conditions: IV, two administrations at 2 min interval after diazepam
Description: as §1
Males were injected with an initial dose level of 15 mg/kg and approximately 2 minutes later an addition of 5 mg/kg was administered. […]
Sleeping time was determined for all animals.
Evaluation was based on the relative recorded changes in the measured Sleeping Time and locomotor activity, obtained from the Test & Reference Items-treated animals vs. those of the Control Item group. […]

Row | SMILES | Diastolic BP [2] | Systolic BP [2] | Pulse rate [2] | Effectiveness [3] | Focus ability [3] | Vigilance [3] | POMS- fatigue [4] | POMS-Alertness [4] | DSST [5] | iWRT [6] | also measured
1 | CN1C(=O)CN=C(c2ccccc2)c2cc(Cl)ccc21 [Diazepam] | – | – | – | – | – | – | – | – | – | – | additional duration of 'Sleep' after supplement dose ([1]; female rat, 20 mg/kg then supplement 5 mg/kg IV): 1180 s; mortality after diazepam injection ([1]; female rat, single dose 25 mg/kg IV, 25 mg/kg): died immediately following injection and FDC; mortality after diazepam injection ([1]; female rat, single dose 25 mg/kg IV, listed as diazepam, 25 mg/kg): death; duration of induced 'Sleep' ([1]; female rats, diazepam 20 mg/kg IV, individual animals): 240 s and 180 s; additional duration of 'Sleep' after supplement dose ([1]; male rat, 15 mg/kg then supplement 5 mg/kg IV): 850 s; duration of induced 'Sleep' ([1]; male rat, diazepam 10 mg/kg IV, single animal): 46 s; duration of induced 'Sleep' ([1]; male rat, diazepam 15 mg/kg IV, single animal): 130 s; duration of induced 'Sleep' ([1]; male rat, diazepam 20 mg/kg IV, single animal): 1700 s; mortality after diazepam injection ([1]; male rat, single dose 20 mg/kg IV, 20 mg/kg): died immediately following injection and FDC; mortality after diazepam injection ([1]; male rat, single dose 20 mg/kg IV, listed as diazepam, 20 mg/kg): death
2 | Cc1nnc2n1-c1sc(Br)cc1C(c1ccccc1Cl)=NC2 [Brotizolam] | 69.0 ± 2.8 | 116.9 ± 4.8 | 69.8 ± 1.8 | 2.3 ± 0.3 | 2.4 ± 0.4 | 2.3 ± 0.4 | 7.2 ± 1.2 | 4.3 ± 1.0 | 76.3 ± 7.7 | 7.6 ± 1.3 | –
3 | Cc1ccc(-c2nc3ccc(C)cn3c2CC(=O)N(C)C)cc1 [Zolpidem] | 71.4 ± 1.9 | 119.5 ± 4.0 | 77.5 ± 3.5 | 1.5 ± 0.4 | 1.5 ± 0.4 | 1.4 ± 0.3 | 9.3 ± 1.4 | 1.9 ± 1.0 | 62.5 ± 3.6 | 4.1 ± 0.3 | oral bioavailability [7]: 70%
4 | CCOC(=O)c1ncn2c1CN(C)C(=O)c1cc(F)ccc1-2 [Reference Item] | – | – | – | – | – | – | – | – | – | – | area of the cage where rats moved or stayed ([8]; Area 1 peripheries (normal behavior), Area 2 central, FIG. 11): stayed in the central area of the cage; locomotor activity ([8]; after regaining righting reflex, males and females): very low and similar to that of the control animals; total distance versus Control group ([8]; female rats, 15 min session, diazepam 20+5 mg/kg IV): No statistical significant difference; mean group time spent in the extent of the activity cage versus controls ([8]; male rats): relatively higher; total distance, mean group values versus Control group ([8]; male rats, 15 min session, diazepam 15+5 mg/kg IV): only one out of the four males exhibited higher values; regaining of Righting Reflex (Sleeping Time) [9]: regained their righting reflex very shortly following injection

Source: patent US20120295893A1, “COMPOSITIONS AND METHODS OF COUNTERACTING RESIDUAL SEDATIVE EFFECTS OF SLEEP/ HYPNOTIC DRUGS” (COERULEUS LTD., priority 2009, published 2012)
